The values below come from patent publication US8865734B2 (priority 2010, dated 2014).

Structures are written as SMILES. Values after ≈ are worked out from the molar mass of the structure shown.

For assay [1], the system named is M. tuberculosis inside the host macrophage. Put plainly: QIM: Quantification of Intracellular Mycobacteria (intracellular growth assay, phenotypic cell-based). To be noted: Mycobacterium tuberculosis; MIC, 80% bacterial growth inhibition; intracellular growth; read-out: QIM. The method, boiled down: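 Dose-response testing of intracellular mycobacterial replication in infected macrophages, a cell-based screening format; MIC is defined as the lowest concentration achieving 80% inhibition of bacterial growth.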

Assay [2] deals with in vitro grown Mycobacteria (M. tuberculosis). Briefly: QUM: Quantification of in vitro grown Mycobacteria (in vitro growth fluorescence assay). In kind it is cell-based. To be noted: Mycobacterium tuberculosis; MIC, 80% bacterial growth inhibition; in vitro growth; read-out: QUM. The method, boiled down: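 Mycobacterium tuberculosis grown in vitro was quantified by fluorescence across compound dose responses. MIC is defined as the minimum concentration producing 80% growth inhibition.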

As to `CCc1nc2ccc(Cl)cn2c1C(=O)NCc1ccc(N2CCN(c3ccc(F)cc3)CC2)cc1` [Compound 113, 6-Chloro-2-ethyl-N-(4-(4-(4-fluorophenyl)piperazin-1-yl)benzyl)imidazo[1,2-a]pyridine-3-carboxamide], the MIC in assay [1] and in assay [2] was below 1 µM in each case.

Consider `CCc1nc2cc(Cl)ccn2c1C(=O)NCc1ccc(-c2ccc(F)cc2)cc1` [Compound 116, 7-Chloro-2-ethyl-N-((4′-fluorobiphenyl-4-yl)methyl)imidazo[1,2-a]pyridine-3-carboxamide], for which the MIC in assay [1] and in assay [2] was below 1 µM each time.

As to `CCc1nc2cc(Cl)ccn2c1C(=O)NCc1ccc(-c2ccc(C(C)(C)C)cc2)cc1` [Compound 117, N-((4′-tert-Butylbiphenyl-4-yl)methyl)-7-chloro-2-ethylimidazo[1,2-a]pyridine-3-carboxamide], the MIC in assay [1] and in assay [2] was below 1 µM in each case.

With `CCc1nc2cc(Cl)ccn2c1C(=O)NCc1ccc(-c2ccc(OC)cc2)cc1` [Compound 118, 7-Chloro-2-ethyl-N-((4′-methoxybiphenyl-4-yl)methyl)imidazo[1,2-a]pyridine-3-carboxamide], the MIC in assay [1] and in assay [2] was below 1 µM each time.

Consider `CCc1nc2cc(Cl)ccn2c1C(=O)NCc1ccc(-c2ccc(OC(F)(F)F)cc2)cc1` [Compound 119, 7-Chloro-2-ethyl-N-((4′-(trifluoromethoxy)biphenyl-4-yl)methyl)imidazo[1,2-a]pyridine-3-carboxamide], for which the MIC in assay [1] and in assay [2] was below 1 µM in each case.

`CCc1nc2cc(Cl)ccn2c1C(=O)NCc1ccc(-c2ccc(C(F)(F)F)cc2)cc1` [Compound 120, 7-Chloro-2-ethyl-N-((4′-(trifluoromethyl)biphenyl-4-yl)methyl)imidazo[1,2-a]pyridine-3-carboxamide]: the MIC in assay [1] and in assay [2] was below 1 µM each time.

`CCc1nc2ccc(Cl)cn2c1C(=O)NCc1ccc(-c2ccc(C#N)cc2)cc1` [Compound 121, 6-Chloro-N-((4′-cyanobiphenyl-4-yl)methyl)-2-ethylimidazo[1,2-a]pyridine-3-carboxamide]: the MIC in assay [1] and in assay [2] was below 1 µM each time.

For the compound `CCc1nc2cc(Cl)ccn2c1C(=O)NCc1ccc(-c2ccc(C#N)cc2)cc1` [Compound 122, 7-Chloro-N-((4′-cyanobiphenyl-4-yl)methyl)-2-ethylimidazo[1,2-a]pyridine-3-carboxamide], the MIC in assay [1] and in assay [2] was below 1 µM throughout.

As to `CCc1nc2ccc(Cl)cn2c1C(=O)NCc1ccc(-c2ccccc2C(F)(F)F)cc1` [Compound 123, 6-Chloro-2-ethyl-N-((2′-(trifluoromethyl)biphenyl-4-yl)methyl)imidazo[1,2-a]pyridine-3-carboxamide], the MIC in assay [1] is below 1 µM; in assay [2], 1 to 20 µM (≈ 0.458 to 9.16 µg/mL).

`CCc1nc2cc(Cl)ccn2c1C(=O)NCc1ccc(-c2ccccc2C(F)(F)F)cc1` [Compound 124]: the figures for the MIC in assay [1] and in assay [2] were below 1 µM and 1 to 20 µM (≈ 0.458 to 9.16 µg/mL), respectively.

As for `CCc1nc2ccc(Cl)cn2c1C(=O)NCc1ccc(-c2ccccc2C#N)cc1` [Compound 125, 6-Chloro-N-((2′-cyanobiphenyl-4-yl)methyl)-2-ethylimidazo[1,2-a]pyridine-3-carboxamide], the MIC is 1 to 20 µM (≈ 0.415 to 8.3 µg/mL) in assay [1] and below 1 µM in assay [2].

For the compound `CCc1nc2cc(Cl)ccn2c1C(=O)NCc1ccc(-c2ccccc2C#N)cc1` [Compound 126, 7-Chloro-N-((2′-cyanobiphenyl-4-yl)methyl)-2-ethylimidazo[1,2-a]pyridine-3-carboxamide], the MIC is 1 to 20 µM (≈ 0.415 to 8.3 µg/mL) in assay [1] and below 1 µM in assay [2].

For the compound `CCc1nc2ccc(Cl)cn2c1C(=O)NCc1ccc(-c2cccc(C#N)c2)cc1` [Compound 127, 6-Chloro-N-((3′-cyanobiphenyl-4-yl)methyl)-2-ethylimidazo[1,2-a]pyridine-3-carboxamide], the MIC in assay [1] was below 1 µM; in assay [2] it was above 20 µM.

Regarding `CCc1nc2cc(Cl)ccn2c1C(=O)NCc1ccc(-c2cccc(C#N)c2)cc1` [Compound 128, 7-Chloro-N-((3′-cyanobiphenyl-4-yl)methyl)-2-ethylimidazo[1,2-a]pyridine-3-carboxamide], the MIC is below 1 µM in assay [1] and above 20 µM in assay [2].

`CCc1nc2ccc(Cl)cn2c1C(=O)NCc1ccc(-c2ccc(Cl)cc2C(F)(F)F)cc1` [Compound 129, 6-Chloro-N-((4′-chloro-2′-(trifluoromethyl)biphenyl-4-yl)methyl)-2-ethylimidazo[1,2-a]pyridine-3-carboxamide]: the MIC in assay [1] and in assay [2] was below 1 µM each time.

Consider `CCc1nc2cc(Cl)ccn2c1C(=O)NCc1ccc(-c2ccc(Cl)cc2C(F)(F)F)cc1` [Compound 130, 7-Chloro-N-((4′-chloro-2′-(trifluoromethyl)biphenyl-4-yl)methyl)-2-ethylimidazo[1,2-a]pyridine-3-carboxamide], for which the MIC in assay [1] is below 1 µM; in assay [2], 1 to 20 µM (≈ 0.492 to 9.85 µg/mL).

For `CCc1nc2ccc(Cl)cn2c1C(=O)NCc1ccc(-c2ccc(C#N)cc2C)cc1` [Compound 131, 6-Chloro-N-((4′-cyano-2′-methylbiphenyl-4-yl)methyl)-2-ethylimidazo[1,2-a]pyridine-3-carboxamide], the MIC in assay [1] and in assay [2] was below 1 µM throughout.

In the case of `CCc1nc2cc(Cl)ccn2c1C(=O)NCc1ccc(-c2ccc(C#N)cc2C)cc1` [Compound 132, 7-Chloro-N-((4′-cyano-2′-methylbiphenyl-4-yl)methyl)-2-ethylimidazo[1,2-a]pyridine-3-carboxamide], the MIC in assay [1] and in assay [2] was below 1 µM in each case.

For the compound `CCc1nc2cc(Cl)ccn2c1C(=O)NCc1ccc(-c2ccc(F)cc2Cl)cc1` [Compound 133, 7-Chloro-N-((2′-chloro-4′-fluorobiphenyl-4-yl)methyl)-2-ethylimidazo[1,2-a]pyridine-3-carboxamide], the MIC in assay [1] and in assay [2] was below 1 µM each time.

Consider `CCc1nc2cc(Cl)ccn2c1C(=O)NCc1ccc(-c2ccncc2)cc1` [Compound 134, 7-Chloro-2-ethyl-N-(4-(pyridin-4-yl)benzyl)imidazo[1,2-a]pyridine-3-carboxamide], for which the MIC was below 1 µM in assay [1] and 1 to 20 µM (≈ 0.391 to 7.82 µg/mL) in assay [2].

`CCc1nc2cc(Cl)ccn2c1C(=O)NCc1ccc(-c2ccc(OC)cn2)cc1` [Compound 135, 7-Chloro-2-ethyl-N-(4-(5-methoxypyridin-2-yl)benzyl)imidazo[1,2-a]pyridine-3-carboxamide]: the MIC was below 1 µM in assay [1] and 1 to 20 µM (≈ 0.421 to 8.42 µg/mL) in assay [2].

On to `CCc1nc2cc(Cl)ccn2c1C(=O)NCc1ccc(-c2ccc[nH]2)cc1` [Compound 136, N-(4-(1H-Pyrrol-2-yl)benzyl)-7-chloro-2-ethylimidazo[1,2-a]pyridine-3-carboxamide], for which the MIC in assay [1] and in assay [2] was 1 to 20 µM (≈ 0.379 to 7.58 µg/mL) each time.

As for `CCc1nc2cc(Cl)ccn2c1C(=O)NCc1ccc(-c2ccco2)cc1` [Compound 137, 7-Chloro-2-ethyl-N-(4-(furan-2-yl)benzyl)imidazo[1,2-a]pyridine-3-carboxamide], the MIC in assay [1] was below 1 µM; in assay [2], 1 to 20 µM (≈ 0.38 to 7.6 µg/mL).

Turning to `CCc1nc2cc(Cl)ccn2c1C(=O)NCc1ccc(-n2cccc2)cc1` [Compound 138, N-(4-(1H-Pyrrol-1-yl)benzyl)-7-chloro-2-ethylimidazo[1,2-a]pyridine-3-carboxamide], the MIC in assay [1] and in assay [2] was below 1 µM in each case.

On to `CCc1nc2ccc(Cl)cn2c1C(=O)NCc1ccc(N2CCC(Oc3ccc(OC(F)(F)F)cc3)CC2)cc1` [Compound 139, 6-Chloro-2-ethyl-N-(4-(4-(4-(trifluoromethoxy)phenoxy)piperidin-1-yl)benzyl)imidazo-[1,2-a]pyridine-3-carboxamide], for which the MIC in assay [1] and in assay [2] was below 1 µM in each case.

As to `CCc1nc2cc(Cl)ccn2c1C(=O)NCc1ccc(N2CCC(Oc3ccc(OC(F)(F)F)cc3)CC2)cc1` [Compound 140, 7-Chloro-2-ethyl-N-(4-(4-(4-(trifluoromethoxy)phenoxy)piperidin-1-yl)benzyl)imidazo-[1,2-a]pyridine-3-carboxamide], the MIC in assay [1] and in assay [2] was below 1 µM each time.

With `CCc1nc2cnccn2c1C(=O)NCc1ccc(-c2ccc(Cl)cc2)cc1` [Compound 141, N-((4′-Chlorobiphenyl-4-yl)methyl)-2-ethylimidazo[1,2-a]pyrazine-3-carboxamide], the MIC in assay [1] and in assay [2] was below 1 µM each time.

In the case of `CCc1nc2cc(Cl)ccn2c1NC(=O)c1ccc(-c2ccccc2)cc1` [Compound 142, N-(7-Chloro-2-ethylimidazo[1,2-a]pyridin-3-yl)biphenyl-4-carboxamide], the MIC in assay [1] and in assay [2] was above 20 µM in each case.

Take `CCc1nc2cc(Cl)ccn2c1NC(=O)Cc1ccc(-c2ccccc2)cc1` [Compound 143, 2-(Biphenyl-4-yl)-N-(7-chloro-2-ethylimidazo[1,2-a]pyridin-3-yl)acetamide]: the MIC in assay [1] is below 1 µM; in assay [2], 1 to 20 µM (≈ 0.39 to 7.8 µg/mL).

As to `CCCC(=O)NCc1ccc(N2CCN(c3ccc(CNC(=O)c4c(CC)nc5cc(Cl)ccn45)cc3)CC2)cc1` [Compound 144, N-(4-(4-(4-(Butyramidomethyl)phenyl)piperazin-1-yl)benzyl)-7-chloro-2-ethylimidazo-[1,2-a]pyridine-3-carboxamide], the MIC in assay [1] and in assay [2] was below 1 µM each time.

Regarding `CCc1nc2cc(N3CCNCC3)ccn2c1C(=O)NCc1ccc(C(C)(C)C)cc1` [Compound 145, N-(4-tert-Butylbenzyl)-2-ethyl-7-(piperazin-1-yl)imidazo[1,2-a]pyridine-3-carboxamide], the MIC in assay [1] and in assay [2] was above 20 µM each time.

As for `CCc1nc2ccc([N+](=O)[O-])cn2c1C(=O)NCc1ccc(OC(F)(F)F)cc1` [Compound 149, 2-Ethyl-6-nitro-N-(4-(trifluoromethoxy)benzyl)imidazo[1,2-a]pyridine-3-carboxamide], the MIC in assay [1] and in assay [2] was above 20 µM throughout.
